A word on the Ki: it is a measure of affinity in units of concentration, obtained from inhibition or displacement.

The target of the test is human PDE10A2 (Homo sapiens (Human), UniProt Q9Y233). Kind of test: PDE10 fluorescence polarization (IMAP FP) inhibition assay. Format: biochemical. To be noted: FAM-labeled cAMP 50 nM, room temperature, read-out: PDE10a Ki. The protocol: The activity of the compounds in accordance with the present invention as PDE10 inhibitors may be readily determined without undue experimentation using a fluorescence polarization (FP) methodology that is well known in the art (Huang, W., et al., J. Biomol Screen, 2002, 7: 215).
human PDE10A2, sequence (Q9Y233 267-1055): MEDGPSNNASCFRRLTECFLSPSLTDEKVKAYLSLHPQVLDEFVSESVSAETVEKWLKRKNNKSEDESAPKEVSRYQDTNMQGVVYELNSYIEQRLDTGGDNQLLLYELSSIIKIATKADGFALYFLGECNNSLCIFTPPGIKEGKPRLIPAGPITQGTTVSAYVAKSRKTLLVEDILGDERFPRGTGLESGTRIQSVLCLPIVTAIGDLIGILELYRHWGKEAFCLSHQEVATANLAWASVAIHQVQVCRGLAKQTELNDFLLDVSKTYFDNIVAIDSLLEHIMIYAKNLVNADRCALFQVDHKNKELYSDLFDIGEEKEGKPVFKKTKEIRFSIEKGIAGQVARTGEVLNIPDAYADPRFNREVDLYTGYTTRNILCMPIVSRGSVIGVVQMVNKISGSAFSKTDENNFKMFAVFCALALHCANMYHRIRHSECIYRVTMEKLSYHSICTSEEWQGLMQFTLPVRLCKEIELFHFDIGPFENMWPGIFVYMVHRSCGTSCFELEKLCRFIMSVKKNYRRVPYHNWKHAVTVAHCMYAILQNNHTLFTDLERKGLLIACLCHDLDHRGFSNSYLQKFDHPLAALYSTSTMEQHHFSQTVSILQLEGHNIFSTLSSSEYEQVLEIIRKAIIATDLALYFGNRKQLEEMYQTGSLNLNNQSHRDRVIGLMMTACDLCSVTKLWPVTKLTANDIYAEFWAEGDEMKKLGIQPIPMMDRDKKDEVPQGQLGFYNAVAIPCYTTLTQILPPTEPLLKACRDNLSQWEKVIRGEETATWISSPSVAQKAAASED
In a typical experiment the PDE10 inhibitory activity of the compounds of the present invention was determined in accordance with the following experimental method. PDE10A2 was amplified from human fetal brain cDNA (Clontech, Mountain View, Calif.) using a forward primer corresponding to nucleotides 56-77 of human PDE10A2 (Accession No. AF127480, Genbank Identifier 4894716), containing a Kozak consensus sequence, and a reverse primer corresponding to nucleotides 2406-2413 of human PDE10A2 (Accession No. AF127480, Genbank Identifier 4894716). Amplification with Easy-A polymerase (Stratagene, La Jolla, Calif.) was 95° C. for 2 minutes followed by thirty three cycles of 95° C. for 40 seconds, 55° C. for 30 seconds, and 72° C. for 2 minutes 48 seconds. Final extension was 72° C. for 7 minutes. The PCR product was TA cloned into pcDNA3.2-TOPO (Invitrogen, Carlsbad, Calif.) according to standard protocol. AD293 cells with 70-80% confluency were transiently transfected with human PDE10A2/pcDNA3.2-TOPO using Lipofectamine 2000 according to manufacturer specifications (Invitrogen, Carlsbad, Calif.). Cells were harvested 48 hours post-transfection and lysed by sonication (setting 3, 10×5 sec pulses) in a buffer containing 20 mM HEPES, 1 mM EDTA and protease inhibitor cocktail (Roche). Lysate was collected by centrifugation at 75,000×g for 20 minutes. Supernatant containing the cytoplasmic fraction was used for evaluation of PDE10A2 activity. The fluorescence polarization assay for cyclic nucleotide phosphodiesterases was performed using an IMAP® FP kit supplied by Molecular Devices, Sunnyvale, Calif. (product # R8139). IMAP® technology has been applied previously to phosphodiesterase assays (Huang, W., et al., J. Biomol Screen, 2002, 7: 215). Assays were performed at room temperature in 384-well microtiter plates with an incubation volume of 20.2 μL. Solutions of test compounds were prepared in DMSO and serially diluted with DMSO to yield 8 μL of each of 10 solutions differing by 3-fold in concentration, at 32 serial dilutions per plate. 100% inhibition is determined using a known PDE10 inhibitor, which can be any compound that is present at 5,000 times its Ki value in the assay described as follows, such as papaverine (see Siuciak, et al. Neuropharmacology (2006) 51:386-396; Becker, et al. Behav Brain Res (2008) 186(2):155-60; Threlfell, et al., J Pharmacol Exp Ther (2009) 328(3):785-795), 2-{4-[pyridin-4-yl-1-(2,2,2-trifluoroethyl)-1H-pyrazol-3-yl]phenoxymethyl}quinoline succinic acid or 2-[4-(1-methyl-4-pyridin-4-yl-1H-pyrazol-3-yl)-phenoxymethyl]quinoline succinic acid (see Schmidt, et al. J Pharmacol Exp Ther (2008) 325:681-690; Threlfall, et al., J Pharmacol Exp Ther (2009) 328(3): 785-795). 0% of inhibition is determined by using DMSO (1% final concentrations).
A Labcyte Echo 555 (Labcyte, Sunnyvale, Calif.) is used to dispense 200 nL from each well of the titration plate to the 384 well assay plate. A solution of enzyme (1/1600 dilution from aliquots; sufficient to produce 20% substrate conversion) and a separate solution of FAM-labeled cAMP PDE from Molecular Devices (product # R7506), at a final concentration of 50 nM are made in the assay buffer (10 mM Tris HCl, pH 7.2, 10 mM MgCl2, 0.05% NaN3 0.01% Tween-20, and 1 mM DTT). The enzyme and the substrate are then added to the assay plates in two consecutive additions of 10 μL, and then shaken to mix. The reaction is allowed to proceed at room temperature for 30 minutes. A binding solution is then made from the kit components, comprised of 80% Solution A, 20% Solution B and binding reagent at a volume of 1600 the total binding solution. […]
On to `Cc1nc([C@@H]2C[C@H]2c2nc3ccccc3n2CCN(C)C)cc(-n2nc(C)nc2C)n1` (stereo in doubt) [Cpd 72, 2-(2-{2-[6-(3,5-dimethyl-1H-1,2,4-triazol-1-yl)-2-methylpyrimidin-4-yl]cyclopropyl}-1H-benzimidazol-1-yl)-N,N-dimethylethanamine], for which the Ki turned out to be 14.2 nM.

`Cc1nc(C)n(-c2cc([C@H]3C[C@@H]3c3nc4ccccc4n3C)nc(OCCF)n2)n1` (relative stereo) [Cpd 122, trans-2-{2-[6-(3,5-dimethyl-1H-1,2,4-triazol-1-yl)-2-(2-fluoroethoxy)pyrimidin-4-yl]cyclopropyl}-1-methyl-1H-benzimidazole]: the Ki is 1.2 nM.

For the compound `Cc1nc(C)n(-c2cc([C@H]3C[C@@H]3c3nc4ccccc4n3C)nc(C(F)(F)F)n2)n1` (relative stereo) [Cpd 109, trans-2-{2-[6-(3,5-dimethyl-1H-1,2,4-triazol-1-yl)-2-(trifluoromethyl)pyrimidin-4-yl]cyclopropyl}-1-methyl-1H-benzimidazole], the inhibition constant (Ki) was found to be 1.4 nM.

`COc1ccc(Cc2nc(C)nn2-c2cc(/C=C/c3ccc4ncccc4n3)nc(C)n2)cc1OC` [Cpd 13, (E)-2-(2-(6-(5-(3,4-dimethoxybenzyl)-3-methyl-1H-1,2,4-triazol-1-yl)-2-methylpyrimidin-4-yl)vinyl)-1,5-naphthyridine]: the Ki is 0.01 nM.

For the compound `Cc1nc([C@H]2C[C@@H]2c2nnc(-c3ccn(C)n3)s2)cc(-n2nc(C)nc2C)n1` [Cpd 105, 4-(3,5-dimethyl-1H-1,2,4-triazol-1-yl)-2-methyl-6-{(1S,2S)-2-[5-(1-methyl-1H-pyrazol-3-yl)-1,3,4-thiadiazol-2-yl]cyclopropyl}pyrimidine], the Ki was above 75 nM.

Consider `CCc1nc([C@H]2C[C@@H]2c2nc3ccccc3n2C)cc(-n2nc(C)nc2C)n1` (relative stereo) [Cpd 119, trans-2-{2-[6-(3,5-dimethyl-1H-1,2,4-triazol-1-yl)-2-ethylpyrimidin-4-yl]cyclopropyl}-1-methyl-1H-benzimidazole], for which the Ki turned out to be 1.2 nM.

Take `CCc1nc(C)nn1-c1cc([C@H]2C[C@@H]2c2nc3ccccc3n2C)nc(C)n1` (stereo in doubt) [Cpd 83, 2-{2-[6-(5-ethyl-3-methyl-1H-1,2,4-triazol-1-yl)-2-methylpyrimidin-4-yl]cyclopropyl}-1-methyl-1H-benzimidazole]: the Ki came out at 0.96 nM.

Consider `Cc1nc([C@H]2C[C@@H]2c2nc3ccccc3n2CCF)cc(-n2nc(C)nc2C)n1` [Cpd 102, 2-{(1S,2S)-2-[6-(3,5-dimethyl-1H-1,2,4-triazol-1-yl)-2-methylpyrimidin-4-yl]cyclopropyl}-1-(2-fluoroethyl)-1H-benzimidazole], for which the Ki was above 75 nM.

For `COCc1ncnn1-c1cc([C@@H]2C[C@H]2c2nc3ccccc3n2C)nc(C)n1` [Cpd 94, 2-[(1R,2R)-2-{6-[5-(methoxymethyl)-1H-1,2,4-triazol-1-yl]-2-methylpyrimidin-4-yl}cyclopropyl]-1-methyl-1H-benzimidazole], the Ki came to 5.3 nM.

Turning to `Cc1ccc(C2CC2c2cc(-n3nc(C)nc3Cc3ccccc3)nc(C)n2)nc1` (stereo not shown) [Cpd 49, 4-(5-benzyl-3-methyl-1H-1,2,4-tiazol-1-yl)-2-methyl-6-(2-(5-methylpyridin-2-yl)cyclopropyl)pyrimidine], the Ki worked out at 0.21 nM.

As to `CCOc1nc([C@@H]2C[C@H]2c2nc3ccccc3n2C)cc(-n2nc(C)nc2C)n1` [Cpd 63, 2-{(1R,2R)-2-[6-(3,5-dimethyl-1H-1,2,4-triazol-1-yl)-2-ethoxypyrimidin-4-yl]cyclopropyl}-1-methyl-1H-benzimidazole], the Ki came to 0.54 nM.

For the compound `Cc1nc([C@@H]2C[C@H]2c2nc3ccccc3n2C)cc(-n2nc(C)nc2C)n1` [Cpd 37, 2-((1R,2R)-2-(6-(3,5-dimethyl-1H-1,2,4-triazol-1-yl)-2-methylpyrimidin-4-yl)cyclopropyl)-1-methyl-1H-benzo[d]imidazole], the inhibition constant (Ki) stood at 1.4 nM.

As for `COc1ccc(Cc2nc(C)nn2-c2cc(/C=C/c3ccccn3)nc(C)n2)cc1OC` [Cpd 19, (E)-4-(5-(3,4-dimethoxybenzyl)-3-methyl-1H-1,2,4-triazol-1-yl)-2-methyl-6-(2-(pyridin-2-yl)vinyl)pyrimidine], the inhibition constant Ki turned out to be 0.002 nM.

Regarding `Cc1nc([C@@H]2C[C@H]2c2nc3ccccc3n2CC2CCCO2)cc(-n2nc(C)nc2C)n1` (stereo in doubt) [Cpd 75, 2-{2-[6-(3,5-dimethyl-1H-1,2,4-triazol-1-yl)-2-methylpyrimidin-4-yl]cyclopropyl}-1-(tetrahydrofuran-2-ylmethyl)-1H-benzimidazole], the Ki was 13 nM.

For the compound `Cc1nc([C@H]2C[C@@H]2c2nc3ccccc3n2CCF)cc(-n2nc(C)nc2C)n1` [Cpd 103, 2-{(1S,2S)-2-[6-(3,5-dimethyl-1H-1,2,4-triazol-1-yl)-2-methylpyrimidin-4-yl]cyclopropyl}-1-(2-fluoroethyl)-1H-benzimidazole], the Ki came to 2.9 nM.

Consider `Cc1ccc2nc(C3CC3c3cc(-n4nc(C)nc4C)nc(C)n3)[nH]c2c1` (stereo not shown) [Cpd 58, 2-(2-(6-(3,5-dimethyl-1H-1,2,4-triazol-1-yl)-2-methylpyrimidin-4-yl)cyclopropyl)-6-methyl-1H-benzo[d]imidazole], for which the Ki was 34.9 nM.

Consider `Cc1nc(C)n(-c2cc([C@H]3C[C@@H]3c3nc4ccccc4n3C)nc(C3CC3)n2)n1` (relative stereo) [Cpd 112, trans-2-{2-[2-cyclopropyl-6-(3,5-dimethyl-1H-1,2,4-triazol-1-yl)pyrimidin-4-yl]cyclopropyl}-1-methyl-1H-benzimidazole], for which the Ki was determined as 0.68 nM.

With `Cc1nc([C@H]2C[C@@H]2c2nc3ccccc3n2C)cc(-n2nc(C)nc2C2CCN(C(=O)OC(C)(C)C)CC2)n1` (stereo in doubt) [Cpd 84, tert-butyl 4-(3-methyl-1-{2-methyl-6-[2-(1-methyl-1H-benzimidazol-2-yl)cyclopropyl]pyrimidin-4-yl}-1H-1,2,4-triazol-5-yl)piperidine-1-carboxylate], the Ki was above 75 nM.

In the case of `Cc1nc(C2CC2c2nc3cccc(C)c3[nH]2)cc(-n2nc(C)nc2C)n1` (stereo not shown) [Cpd 55, 2-(2-(6-(3,5-dimethyl-1H-1,2,4-triazol-1-yl)-2-methylpyrimidin-4-yl)cyclopropyl)-7-methyl-1H-benzo[d]imidazole], the Ki came out at 16.8 nM.

For `COc1nc([C@H]2C[C@@H]2c2nc3ccccc3n2C)cc(-n2nc(C)nc2C)n1` (relative stereo) [Cpd 111, trans-2-{2-[6-(3,5-dimethyl-1H-1,2,4-triazol-1-yl)-2-methoxypyrimidin-4-yl]cyclopropyl}-1-methyl-1H-benzimidazole], the Ki worked out at 1.3 nM.

`CCc1nc(C)nn1-c1cc([C@@H]2C[C@H]2c2nc3ccccc3n2C)nc(C)n1` [Cpd 92, 2-{(1R,2R)-2-[6-(5-ethyl-3-methyl-1H-1,2,4-triazol-1-yl)-2-methylpyrimidin-4-yl]cyclopropyl}-1-methyl-1H-benzimidazole]: the Ki was found to be 0.4 nM.

As for `Cc1nc(C)n(-c2cc([C@@H]3C[C@H]3c3nc4ccccc4n3C)nc(N3CC(C)(O)C3)n2)n1` [Cpd 135, 1-(4-(3,5-dimethyl-1H-1,2,4-triazol-1-yl)-6-((1R,2R)-2-(1-methyl-1H-benzo[d]imidazol-2-yl)cyclopropyl)pyrimidin-2-yl)-3-methylazetidin-3-ol], the Ki amounted to 1.1 nM.

Values taken from patent publication US9200001B2, “Triazolyl PDE10 inhibitors” (Merck Sharp & Dohme Corp., priority 2011, dated 2015).
